This is an account of results in publication PMC3737437, “The malQ gene is essential for starch metabolism in Streptococcus mutans” (Journal of Oral Microbiology, 2013).

Molecules are shown by their SMILES.

The target of the assay is T1, GlgP (Streptococcus mutans, UniProt Q8DT31).
T1 construct: gene overlapping malQ by 29 nt, not the second phosphorylase phsG
T1 sequence (Q8DT31 1-758): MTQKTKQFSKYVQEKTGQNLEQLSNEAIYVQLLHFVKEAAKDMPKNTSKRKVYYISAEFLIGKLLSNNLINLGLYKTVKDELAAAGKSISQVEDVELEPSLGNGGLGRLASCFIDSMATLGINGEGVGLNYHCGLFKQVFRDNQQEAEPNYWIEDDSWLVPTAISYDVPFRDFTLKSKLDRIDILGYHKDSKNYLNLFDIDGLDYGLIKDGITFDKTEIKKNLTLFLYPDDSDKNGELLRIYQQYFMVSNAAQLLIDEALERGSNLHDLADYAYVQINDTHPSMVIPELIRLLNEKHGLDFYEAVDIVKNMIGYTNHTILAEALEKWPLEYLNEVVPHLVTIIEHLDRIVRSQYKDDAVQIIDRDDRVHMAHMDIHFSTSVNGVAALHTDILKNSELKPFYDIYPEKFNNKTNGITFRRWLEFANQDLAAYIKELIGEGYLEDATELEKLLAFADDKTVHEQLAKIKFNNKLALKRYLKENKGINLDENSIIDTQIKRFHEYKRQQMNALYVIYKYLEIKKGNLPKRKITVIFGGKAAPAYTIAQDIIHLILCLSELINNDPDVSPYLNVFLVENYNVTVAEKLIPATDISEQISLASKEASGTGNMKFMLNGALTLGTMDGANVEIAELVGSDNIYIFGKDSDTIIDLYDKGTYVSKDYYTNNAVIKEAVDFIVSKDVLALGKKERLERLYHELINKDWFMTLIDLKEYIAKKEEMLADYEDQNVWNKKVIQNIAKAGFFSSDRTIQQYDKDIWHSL
The assay is described as follows: phosphorylase assay, phosphoglucomutase / glucose-6-phosphate dehydrogenase-NADP end-point at […] nm. Conditions: formed from 1% maltodextrin or 0.8% amylodextrin, 50 mM potassium phosphate pH 7, 0.5 mM MgCl2, 37 °C, 10 min. The format is biochemical.

For the molecule `O=P(O)(O)O[C@H]1O[C@H](CO)[C@@H](O)[C@H](O)[C@H]1O` [glucose-1-phosphate], the “phosphorylase assay, phosphoglucomutase / glucose-6-phosphate dehydrogenase-NADP” value is “generated glucose-1-phosphate from maltodextrin and amylodextrin”.
